Assay results: patent US20240327787A1, “CULTURE MEDIUM, COATING MATRIX AND METHOD FOR EXPANDING MIDBRAIN DOPAMINERGIC PROGENITOR CELLS” (NUWACELL BIOTECHNOLOGIES CO., LTD., priority 2022, published 2024)

Experiments:
Assay type in all cases: cell-based, human
imDAPs [1] = assay: qRT-PCR analysis of imDAP-specific markers during expansion; details: 3 μM CHIR99021 vs 0 and 1.25 μM; 5 days expansion
Protocol: 1. For qRT-PCR analysis of mRNA gene expression, RNA should be harvested from at least 2×10^6 cells.
2. Harvest cells, add 350 μl of buffer RLT+1% (vol/vol) β-mercaptoethanol to the well, transfer the lysate to a 1.5 ml tube, and put it immediately on ice.
3. Perform RNA extraction using the Tiangen Kit (DP430), and follow the manufacturer's protocol ‘Purification of total RNA from animal and human cells’.
4. When the RNA extraction was completed, determine the RNA concentration using a Nanodrop instrument.
5. Perform the first-strand cDNA synthesis reaction with lug of RNA using the HiScript™ II Q RT SuperMIX for qPCR (+gDNA wiper) Kit (Vazyme, #R223-01) for RT-qPCR. Follow the manufacturer's ‘First-Strand cDNA Synthesis’ protocol. This reaction would yield a 20μl product.
6. […]
8. Analyze the samples by running a quantitative PCR on the LightCycler 480 instrument using a 40× cycle two-step protocol with a 60° C., 60 sec annealing/elongation step and a 95° C., 30 sec denaturation step. […]
imDAPs were produced according to the method described in CN201910169525.0. […] When imDAPs reach 100% confluence (4-5 days), cells were passaged enzymatically with 1× TrypLE, centrifuged at 250 g for 5 minutes, counted and replaced on new VTN-coated plates (1 μg/cm^2) at a density of 1×10^5 cells/cm^2 in the expansion medium. imDAPs were continuously expanded for 6 passages. […]

imDAPs [2] = assay: imDAP maturation, cell morphology and adhesion (bright-field); details: 1 μM IWR1 for at least 3 days vs without; VTN-coated; 1% HhPLT medium
Protocol: were produced according to the method described in CN201910169525.0, and expanded as described in Example 10. The expanded […] were seeded on VTN-coated (1 μg/cm^2) plates at a density of 5×10^5 cells/cm^2 (Day 0), and cultured in the maturation medium ([…]) supplemented with 1 μM IWR1. MM-P used in Example 11 contained the following components: NeurobasalTM medium, 1% (v/v) Glutamax, 0.5 mM Db-cAMP sodium salt, 200 μM ascorbic acid, 20 ng/ml BDNF, 20 ng/ml GDNF, 1 ng/ml TGF-β3, 10 μM DAPT, hPLT (0.5%, 1%, 2%). MM-H used in Example 11 contained the following components: NeurobasalTM medium, 1% (v/v) Glutamax, 0.5 mM Db-cAMP sodium salt, 200 μM ascorbic acid, 20 ng/ml BDNF, 20 ng/ml GDNF, 1 ng/ml TGF-β3, […], HhPLT (0.5%, 1%, 2%). MM-B used in Example 11 contained the following components: Neurobasal, 1% (v/v) Glutamax, 0.5 mM Db-cAMP sodium salt, 200 μM ascorbic acid, 20 ng/ml BDNF, 20 ng/ml GDNF, 1 ng/ml TGF-β 3, 10 μM DAPT, 2% (v/v) B27 (50×) (as control). The above HhPLT was produced from hPLT as follows. The hPLT was centrifuged at 3000 g for 30 min at 4° C. to obtain the supernatant, which was heated to 56° C. for 30 min. […] Cells were collected and counted by Vi-cell cytometer. The cells were analyzed by RT-qPCR for EN1, LMX1A, FOXA2, NURR1, SOX6 and TH gene expression. […]

imDAPs [3] = assay: qRT-PCR analysis of mDA maturation associated markers; details: 1 μM IWR1 vs without IWR1; day 7
Protocol: 1. For qRT-PCR analysis of mRNA gene expression, RNA should be harvested from at least 2×10^6 cells. 2. Harvest cells, add 350 μl of buffer RLT+1% (vol/vol) β-mercaptoethanol to the well, transfer the lysate to a 1.5 ml tube, and put it immediately on ice. 3. Perform RNA extraction using the Tiangen Kit (DP430), and follow the manufacturer's protocol 'Purification of total RNA from animal and human cells'. 4. When the RNA extraction was completed, determine the RNA concentration using a Nanodrop instrument. 5. Perform the first-strand cDNA synthesis reaction with lug of RNA using the HiScriptTM II Q RT SuperMIX for qPCR (+gDNA wiper) Kit (Vazyme, #R223-01) for RT-qPCR. Follow the manufacturer's 'First-Strand cDNA Synthesis' protocol. This reaction would yield a 20μl product. 6. Dilute the 10 μl cDNA product in 80 μl of nuclease-free water. 7. […] Analyze the samples by running a quantitative PCR on the LightCycler 480 instrument using a 40× cycle two-step protocol with a 60° C., 60 sec annealing/elongation step and a 95° C., 30 sec denaturation step. […] Cells were collected and counted by Vi-cell cytometer. The cells were analyzed by RT-qPCR for EN1, LMX1A, FOXA2, NURR1, SOX6 and TH gene expression. […]

Row | Compound | mDAP marker expression (EN1, LMX1A, FOXA2), qRT-PCR (FIG. 1C) (imDAPs [1]) | cell morphology on day 7 during maturation (FIG. 7D) (imDAPs [2]) | expression of NURR1, SOX6 and TH, qRT-PCR (FIG. 7E) (imDAPs [3])
1 | Cc1cnc(-c2cnc(NCCNc3ccc(C#N)cn3)nc2-c2ccc(Cl)cc2Cl)[nH]1 [CHIR99021] | allowed better maintenance of mDAP marker expression | – | –
2 | O=C(Nc1cccc2cccnc12)c1ccc(N2C(=O)[C@@H]3[C@H](C2=O)[C@@H]2C=C[C@H]3C2)cc1 [IWR1] | – | showed more obvious neural fibers | increased
